The test deals with T1, SaCas9 (Staphylococcus aureus, UniProt J7RUA5).
T1 sequence (J7RUA5 1-1053): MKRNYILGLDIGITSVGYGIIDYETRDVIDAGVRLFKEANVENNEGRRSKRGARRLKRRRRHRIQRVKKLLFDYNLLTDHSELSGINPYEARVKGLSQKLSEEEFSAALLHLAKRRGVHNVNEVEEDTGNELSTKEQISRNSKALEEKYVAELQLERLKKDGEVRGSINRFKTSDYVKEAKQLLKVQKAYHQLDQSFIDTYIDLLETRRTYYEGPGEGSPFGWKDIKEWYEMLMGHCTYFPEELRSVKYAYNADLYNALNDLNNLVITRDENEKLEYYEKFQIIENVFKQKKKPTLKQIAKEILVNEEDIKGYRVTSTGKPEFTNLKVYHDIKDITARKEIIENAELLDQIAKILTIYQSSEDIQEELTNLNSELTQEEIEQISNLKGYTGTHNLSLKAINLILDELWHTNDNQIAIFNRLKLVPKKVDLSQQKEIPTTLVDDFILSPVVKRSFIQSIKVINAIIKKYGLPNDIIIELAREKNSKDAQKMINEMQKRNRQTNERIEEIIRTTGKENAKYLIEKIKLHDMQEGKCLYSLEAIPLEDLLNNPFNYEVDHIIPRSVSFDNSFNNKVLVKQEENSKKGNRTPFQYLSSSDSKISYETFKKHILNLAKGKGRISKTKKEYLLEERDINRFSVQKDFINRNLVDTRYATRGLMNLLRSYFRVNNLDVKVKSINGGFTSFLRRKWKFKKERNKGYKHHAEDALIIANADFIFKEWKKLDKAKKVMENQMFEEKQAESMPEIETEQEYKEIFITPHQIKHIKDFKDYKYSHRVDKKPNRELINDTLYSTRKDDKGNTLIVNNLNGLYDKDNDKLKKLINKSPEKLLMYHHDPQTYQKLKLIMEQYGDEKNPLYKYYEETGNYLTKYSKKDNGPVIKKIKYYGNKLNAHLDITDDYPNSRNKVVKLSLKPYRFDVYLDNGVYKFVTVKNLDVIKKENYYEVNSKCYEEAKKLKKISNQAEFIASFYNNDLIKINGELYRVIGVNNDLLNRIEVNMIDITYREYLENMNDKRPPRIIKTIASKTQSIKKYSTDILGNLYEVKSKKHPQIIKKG
Put plainly: Strand displacement assay, SaCas9 primary screen. Format: biochemical. As to conditions: for Auto Zscore Rep 1 / Auto Zscore Rep 2 / Normalized Zscore Rep 1 / Normalized Zscore Rep 2: SaCas9 primary screen; for Auto Zscore Rep 1 / Normalized Zscore Rep 1: replicate 1; for Auto Zscore Rep 2 / Normalized Zscore Rep 2: replicate 2; for Normalized Zscore Rep 1 / Normalized Zscore Rep 2: weaker potential hits; for 3 sigma Hit: flag 1 = hit at 3 sigma; for 5 sigma Hit: flag 1 = hit at 5 sigma. The method, then: An overview of the screening for SaCas9 inhibitors is depicted in FIG. 14. A total of 43,168 Compounds were screened from the ICCB Libraries. Libraries screened for the initial compounds include ChemDiv 7 (34,848 cpds), Enamine 1 (5,280 cpds), ChemDiv1 (1,760 cpds), NIH Clinical Collection (450 cpds), Biomol 4—FDA Approved Library (640 cpds). A hit is determined from the Zscore, with 3-5σ being a weak hit, >5σ being a strong hit. The results of the hits include 193 Weak Hits and 249 Strong Hits. The NIH Clinical Collection 1-2014 was screened for 450 of 450 compounds, with 7 hits—1.5%. The Biomol 4—FDA Approved Library was screened for 640 of 640 compounds, with 8 hits—1.2%. […] Enamine 1 was screened for 5,280 of 6,004 compounds, with 44 hits—0.83%. Libraries are commercially available, with reference numbers utilized for compounds identifying the compound structures used. […]
Generalization of CAA to other Cas nucleases. Applicants sought to generalize CAA to other CRISPR-associated nucleases, including from Staphylococcus aureus (SaCas9). Given the similarities between SaCas9 and SpCas9 modes of DNA-substrate binding and protein folding,^26, 27 Applicants hypothesized that SaCas9-induced strand displacement could be similarly measured. Indeed, fluorescence quenching correlated with substrate cleavage in the CAA assay with active SaCas9:gRNA and an ACGGGT PAM sequence, which was validated with gel electrophoresis (FIG. 62F,G and FIG. 69F).
First, Applicants optimized various components and conditions of the strand displacement assay for Cas enzyme activity and generality with different Cas such as SpCas9 (FIG. 62B) or SaCas9 (FIG. 69F) or FnCas12a (FIG. 70A,B). Typically, SpCas9: gRNA (1:1.2 ratio) RNP was pre-formed at 1 μM in Cas9 assay buffer (20 mM Tris-HCl, pH=7.5, 100 mM KCl, 5 mM MgCl2) for 5 min at 4° C. before diluting to 10 nM in Cas9 assay buffer (2× final concentration). 25 μL of the Cas9 2× stock was manually dispensed to a black 384-well plate (Corning 3575) using electronic pipette. Apo SpCas9 (without guide RNA) was used at the same concentration as a control for no activity (mock inhibition). Following this, pre-annealed Alexa-Fluor 647 labeled substrate and quencher were also diluted to 1 nM and 5 nM in Cas9 assay buffer, respectively (2× stock solution). Next, 25 μL of the substrate/quencher solution was added manually to each well of the Cas9-containing 384-well plates using an electronic pipette and was incubated at 37° C. for 2.5 h. Fluorescent signals were read with the microplate reader set to read Alexa-Fluor 647 fluorescence. Assay was performed similarly with SaCas9 and FnCas12a using the respective enzyme, gRNA, substrate, and quencher oligos. Applicants similarly divulged the effect of PAM sequences of dsDNA on its assay specificity using TGG, TGC, AAC PAM containing substrates for SpCas9 (FIG. 62C), and ACGGGT, ACGGTT, TGCCCA PAM substrate for SaCas9 (FIG. 62F) and TTTC, TTGC, AAAG PAM substrates for FnCpf1 (FIG. 63B-C). Applicants also optimized the effective concentration of DS-AF647 and SS-AF647 fluorophores (FIG. 64A), DS-substrate to SpCas9 RNP ratio (FIG. 64B) and substrate to quencher ratio (FIG. 64C) on assay performance. Similarly, Applicants performed a time course experiment to establish the time required for maximum completion of the reaction at various substrate to SpCas9 RNP ratios (FIG. 64D).

In the case of `c1ccc(-c2nnc3sc(-c4ccncc4)nn23)nc1` [Cpd D727-0542], the “Auto Zscore Rep 1” value is listed as −0.3775, the “Auto Zscore Rep 2” value is 1.249, the “Normalized Zscore Rep 1” value came out at 0.1921 and the “Normalized Zscore Rep 2” value was determined as 0.2295. Further, the “3 sigma Hit” value came to 1 and the “5 sigma Hit” value is reported as 1.

Take `Cc1cc(-c2nn3c(C(C)C)nnc3s2)no1` [Cpd D727-0612]: the “Auto Zscore Rep 1” value is −0.2589, the “Auto Zscore Rep 2” value is on record as −0.2694, the “Normalized Zscore Rep 1” value is listed as 0.1368 and the “Normalized Zscore Rep 2” value stood at 0.1972. The “3 sigma Hit” value was determined as 1.

As for `Cc1cc(-c2nn3c(COc4ccccc4)nnc3s2)no1` [Cpd D727-0624], the “Auto Zscore Rep 1” value was found to be 1.24, the “Auto Zscore Rep 2” value came out at 0.8474, the “Normalized Zscore Rep 1” value was determined as 0.2151 and the “Normalized Zscore Rep 2” value turned out to be 0.2232. In addition, the “3 sigma Hit” value was 1 and the “5 sigma Hit” value came out at 1.

As for `Cc1cc(-c2nnc3sc(COc4ccccc4Cl)nn23)[nH]n1` [Cpd D727-0910], the “Auto Zscore Rep 1” value was found to be 0.8719, the “Auto Zscore Rep 2” value is listed as 0.05327, the “Normalized Zscore Rep 1” value was found to be 0.2028 and the “Normalized Zscore Rep 2” value turned out to be 0.2126. Besides, the “3 sigma Hit” value was found to be 1.

Turning to `CC1(C)CC(=O)C2=C(C1)Nc1onc(C(C)(C)C)c1C2c1ccc(O)c(O)c1` (centres unmarked) [Cpd D733-0293], the “Auto Zscore Rep 1” value is reported as −1.043, the “Auto Zscore Rep 2” value is on record as 2.015, the “Normalized Zscore Rep 1” value is recorded as 0.4191 and the “Normalized Zscore Rep 2” value is recorded as 0.3634. Besides, the “3 sigma Hit” value is reported as 1 and the “5 sigma Hit” value came out at 1.

Regarding `CN1C(C(=O)Nc2sc3c(c2C(N)=O)CCCC3)=CC(c2ccc(F)cc2)=NS1(=O)=O` [Cpd E135-0568], the “Auto Zscore Rep 1” value was found to be 0.3653, the “Auto Zscore Rep 2” value was −0.5622, the “Normalized Zscore Rep 1” value came to 0.1731 and the “Normalized Zscore Rep 2” value is 0.1458. The “3 sigma Hit” value was found to be 1.

In the case of `CC1CCC(NC(=O)C2(C)Cn3c(cc4occc43)C(=O)N2CCN(C)C2CCCCC2)CC1` (centres unmarked) [Cpd E218-0425], the “Auto Zscore Rep 1” value is listed as −0.4666, the “Auto Zscore Rep 2” value worked out at 0.1007, the “Normalized Zscore Rep 1” value stood at 0.2235 and the “Normalized Zscore Rep 2” value came to 0.1821. Besides, the “3 sigma Hit” value worked out at 1.

For `CC1(C(=O)NC2CCCCC2)Cn2c(cc3ccccc32)C(=O)N1c1ccc2c(c1)OCCO2` (centres unmarked) [Cpd E234-0056], the “Auto Zscore Rep 1” value came out at 1.418, the “Auto Zscore Rep 2” value is given as 1.057, the “Normalized Zscore Rep 1” value amounted to 0.2592 and the “Normalized Zscore Rep 2” value is reported as 0.1597. For the same molecule, the “3 sigma Hit” value was found to be 1.

`Cc1sc2c(c1C)CSC(C(=O)Nc1c(C)n(C)n(-c3ccccc3)c1=O)=C2` [Cpd E722-1395]: the “Auto Zscore Rep 1” value was −0.03529, the “Auto Zscore Rep 2” value was determined as 0.492, the “Normalized Zscore Rep 1” value is 0.2255 and the “Normalized Zscore Rep 2” value is given as 0.1818. Further, the “3 sigma Hit” value was determined as 1.

As to `Cc1c(NC(=O)C2=Cc3sc4c(c3CS2)CCCC4)c(=O)n(-c2ccccc2)n1C` [Cpd E722-2603], the “Auto Zscore Rep 1” value was −0.3069, the “Auto Zscore Rep 2” value was found to be 2.714, the “Normalized Zscore Rep 1” value is listed as 0.2035 and the “Normalized Zscore Rep 2” value is 0.262. In addition, the “3 sigma Hit” value worked out at 1.

`CN(C)S(=O)(=O)Nc1ccc(N2CCN(CC(=O)N3CCCC3)CC2)c(C(=O)O)c1` [Cpd F290-0671]: the “Auto Zscore Rep 1” value is −0.453, the “Auto Zscore Rep 2” value was −0.8512, the “Normalized Zscore Rep 1” value amounted to 0.1922 and the “Normalized Zscore Rep 2” value came to 0.2017. Besides, the “3 sigma Hit” value came out at 1.

As for `CCN(Cc1ccccc1)c1ncc(NS(=O)(=O)c2ccc(F)cc2)cc1C(=O)O` [Cpd F293-0001], the “Auto Zscore Rep 1” value stood at 0.4484, the “Auto Zscore Rep 2” value turned out to be 1.331, the “Normalized Zscore Rep 1” value is 0.18 and the “Normalized Zscore Rep 2” value is given as 0.1781. The “3 sigma Hit” value amounted to 1.

As for `CCN(Cc1ccccc1)c1ncc(NS(=O)(=O)c2c(C)cc(C)cc2C)cc1C(=O)O` [Cpd F293-0002], the “Auto Zscore Rep 1” value was determined as 0.3791, the “Auto Zscore Rep 2” value is recorded as −0.09351, the “Normalized Zscore Rep 1” value worked out at 0.2023 and the “Normalized Zscore Rep 2” value is listed as 0.2291. The “3 sigma Hit” value was determined as 1.

With `CCN(Cc1ccccc1)c1ncc(NS(=O)(=O)c2ccccc2)cc1C(=O)O` [Cpd F293-0004], the “Auto Zscore Rep 1” value is 1.668, the “Auto Zscore Rep 2” value turned out to be 0.9183, the “Normalized Zscore Rep 1” value is given as 0.2707 and the “Normalized Zscore Rep 2” value was determined as 0.1884. Moreover, the “3 sigma Hit” value turned out to be 1 and the “5 sigma Hit” value worked out at 1.

Take `CCN(Cc1ccccc1)c1ncc(NS(=O)(=O)CC)cc1C(=O)O` [Cpd F293-0006]: the “Auto Zscore Rep 1” value was determined as 1.342, the “Auto Zscore Rep 2” value was found to be 0.9231, the “Normalized Zscore Rep 1” value was found to be 0.3022 and the “Normalized Zscore Rep 2” value came to 0.2957. In addition, the “3 sigma Hit” value worked out at 1 and the “5 sigma Hit” value came out at 1.

In the case of `CCN(Cc1ccccc1)c1ncc(NS(=O)(=O)c2cc(C)ccc2C)cc1C(=O)O` [Cpd F293-0010], the “Auto Zscore Rep 1” value is 2.149, the “Auto Zscore Rep 2” value was found to be 2.534, the “Normalized Zscore Rep 1” value came out at 0.2507 and the “Normalized Zscore Rep 2” value is listed as 0.2028. The “3 sigma Hit” value is on record as 1 and the “5 sigma Hit” value was determined as 1.

In the case of `Cc1cc(C)c(S(=O)(=O)Nc2cnc(N3CCCC3)c(C(=O)O)c2)c(C)c1` [Cpd F293-0426], the “Auto Zscore Rep 1” value came to 0.8114, the “Auto Zscore Rep 2” value is 1.196, the “Normalized Zscore Rep 1” value amounted to 0.2469 and the “Normalized Zscore Rep 2” value came to 0.2531. The “3 sigma Hit” value is given as 1 and the “5 sigma Hit” value amounted to 1.
